Source: ChEMBL document CHEMBL1201862, “PubChem BioAssay data set” (2004)
Activity calls are given as the source filed them.

Assays:
[1] = biological target: Tyrosine-protein phosphatase non-receptor type 12 (Homo sapiens, UniProt Q05209); assay: SAR Selectivity Analysis of small molecule inhibitors of PEST using pCAP in a fluorescence assay. [Related pubchem assays (depositor defined):AID1779, AID1784, AID2135]; assay type: functional
[2] = biological target: T1, Tyrosine-protein phosphatase non-receptor type 22 (Homo sapiens, UniProt Q9Y2R2); assay: SAR LYP1 Fluorescent Assay using OMFP substrate for In Vitro dose response studies - Set 3. [Related pubchem assays (depositor defined):AID1779, AID1784, AID2140, AID2686]; assay type: functional
T1 sequence (Q9Y2R2 whole entry): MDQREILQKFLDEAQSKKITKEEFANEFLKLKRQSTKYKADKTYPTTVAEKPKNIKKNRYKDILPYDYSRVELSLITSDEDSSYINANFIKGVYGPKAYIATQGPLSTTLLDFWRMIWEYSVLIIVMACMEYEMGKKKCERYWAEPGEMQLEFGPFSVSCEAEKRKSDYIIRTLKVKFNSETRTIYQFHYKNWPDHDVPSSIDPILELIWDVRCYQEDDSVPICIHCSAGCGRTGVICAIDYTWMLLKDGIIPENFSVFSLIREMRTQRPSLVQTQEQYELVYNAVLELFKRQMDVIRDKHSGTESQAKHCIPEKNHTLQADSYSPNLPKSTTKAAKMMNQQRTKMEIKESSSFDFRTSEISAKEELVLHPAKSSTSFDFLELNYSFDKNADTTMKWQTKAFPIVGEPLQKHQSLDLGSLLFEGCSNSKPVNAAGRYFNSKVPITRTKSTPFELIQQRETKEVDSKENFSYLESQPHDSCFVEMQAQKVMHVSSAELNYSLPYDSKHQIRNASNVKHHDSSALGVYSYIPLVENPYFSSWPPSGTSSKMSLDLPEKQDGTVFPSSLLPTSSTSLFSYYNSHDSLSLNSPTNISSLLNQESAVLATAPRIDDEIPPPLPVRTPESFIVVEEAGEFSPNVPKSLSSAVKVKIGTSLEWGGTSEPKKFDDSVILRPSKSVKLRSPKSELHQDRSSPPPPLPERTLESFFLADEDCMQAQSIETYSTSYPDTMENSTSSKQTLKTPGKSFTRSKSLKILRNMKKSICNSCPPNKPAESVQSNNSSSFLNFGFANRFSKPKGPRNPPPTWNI

[3] = biological target: T2, G-protein coupled receptor 35 (Homo sapiens, UniProt Q9HC97); assay: SAR Analysis for the identification of Selective Antagonists of ERK1/2 Activity in GPR35-Overexpressing U2OS Cells. [Related pubchem assays: 2079, 2058 ]; assay type: functional, cell-based
[4] = biological target: T3, G-protein coupled receptor 55 (Homo sapiens, UniProt Q9Y2T6); assay: blockers of GPR55 signalling, imaged – imaging, image-based, counter-screen for GPR35 antagonist project, SAR follow-up (AID 2397); assay type: functional
[5] = biological target: T2, G-protein coupled receptor 35; assay: inhibition of zaprinast-stimulated GPR35 beta-arrestin translocation – imaging, U2OS, beta-arrestin-GFP, zaprinast agonist, primary screen (AID 2058); assay type: functional;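 further: antagonist potency meaning inhibition of agonist-induced arrestin redistribution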
[6] = biological target: T4, Tyrosine-protein phosphatase non-receptor type 7 (Homo sapiens, UniProt P35236); assay: inhibition of hematopoietic tyrosine phosphatase HePTP – biochemical, set 2, SAR follow-up (AID 449736); assay type: functional
T4 sequence (P35236 whole entry): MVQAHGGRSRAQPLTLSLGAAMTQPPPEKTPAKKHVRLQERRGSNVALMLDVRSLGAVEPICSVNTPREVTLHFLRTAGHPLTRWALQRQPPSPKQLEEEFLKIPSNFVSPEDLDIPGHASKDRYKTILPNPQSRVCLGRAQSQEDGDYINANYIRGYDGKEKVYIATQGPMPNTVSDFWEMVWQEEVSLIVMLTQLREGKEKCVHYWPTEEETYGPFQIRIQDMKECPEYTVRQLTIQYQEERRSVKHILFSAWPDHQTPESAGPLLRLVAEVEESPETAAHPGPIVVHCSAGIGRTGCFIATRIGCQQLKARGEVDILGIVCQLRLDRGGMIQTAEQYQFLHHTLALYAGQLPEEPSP

[7] = biological target: T1, Tyrosine-protein phosphatase non-receptor type 22; assay: inhibition of lymphoid tyrosine phosphatase LYP – biochemical, pCAP fluorogenic substrate, fluorescence, set 3, SAR follow-up (AID 449727); assay type: functional
[8] = biological target: Integrin alpha-4 (Homo sapiens, UniProt P13612); assay: allosteric modulators of alpha4 integrin VLA-4 – cell-based, LIBS antibody binding, flow cytometry, SAR follow-up (AID 488791); assay type: functional
[9] = biological target: T5, Short transient receptor potential channel 4 (Mus musculus, UniProt Q9QUQ5); assay: potentiation of DAMGO-evoked TRPC4 calcium signal – cell-based, HEK293 TRPC4/mu-opioid, Fluo-4 calcium, EC20 DAMGO, dose response (AID 434941); assay type: functional
T5 sequence (Q9QUQ5 whole entry): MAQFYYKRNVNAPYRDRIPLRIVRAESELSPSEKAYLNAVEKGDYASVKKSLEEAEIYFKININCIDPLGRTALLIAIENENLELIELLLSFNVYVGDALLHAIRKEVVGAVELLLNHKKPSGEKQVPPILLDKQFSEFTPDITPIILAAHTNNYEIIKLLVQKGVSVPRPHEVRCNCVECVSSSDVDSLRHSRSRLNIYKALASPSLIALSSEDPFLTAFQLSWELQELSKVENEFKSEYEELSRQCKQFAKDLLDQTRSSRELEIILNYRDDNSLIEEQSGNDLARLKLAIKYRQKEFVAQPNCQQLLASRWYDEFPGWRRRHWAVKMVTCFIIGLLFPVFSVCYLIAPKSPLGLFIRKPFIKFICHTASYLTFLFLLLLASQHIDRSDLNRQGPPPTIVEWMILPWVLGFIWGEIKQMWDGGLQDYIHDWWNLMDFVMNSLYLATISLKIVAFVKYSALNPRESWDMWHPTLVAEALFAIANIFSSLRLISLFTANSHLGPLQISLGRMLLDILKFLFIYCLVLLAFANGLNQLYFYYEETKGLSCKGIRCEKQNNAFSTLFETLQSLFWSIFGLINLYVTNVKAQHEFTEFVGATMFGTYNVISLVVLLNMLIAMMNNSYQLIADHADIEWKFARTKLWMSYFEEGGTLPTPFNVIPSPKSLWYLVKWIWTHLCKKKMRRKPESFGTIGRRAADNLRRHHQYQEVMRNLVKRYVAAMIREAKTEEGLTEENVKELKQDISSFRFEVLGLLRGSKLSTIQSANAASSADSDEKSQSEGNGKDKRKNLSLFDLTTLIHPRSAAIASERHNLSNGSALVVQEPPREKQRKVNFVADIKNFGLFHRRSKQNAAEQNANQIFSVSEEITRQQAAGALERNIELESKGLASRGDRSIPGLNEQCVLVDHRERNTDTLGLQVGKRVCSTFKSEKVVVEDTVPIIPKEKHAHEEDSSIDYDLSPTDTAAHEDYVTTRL

[10] = biological target: Alkaline phosphatase, placental type (Homo sapiens, UniProt P05187); assay: human placental alkaline phosphatase inhibition – biochemical, luminescence, confirmation (AID 1512); assay type: functional
[11] = biological target: Glyceraldehyde-3-phosphate dehydrogenase (Homo sapiens, UniProt P04406)
[12] = biological target: T6, Alkaline phosphatase, tissue-nonspecific isozyme (Homo sapiens, UniProt P05186); assay: potency against alkaline phosphatase TNAP – biochemical, luminescent, dose response, SAR follow-up (AID 1056)
T6 sequence (P05186 whole entry): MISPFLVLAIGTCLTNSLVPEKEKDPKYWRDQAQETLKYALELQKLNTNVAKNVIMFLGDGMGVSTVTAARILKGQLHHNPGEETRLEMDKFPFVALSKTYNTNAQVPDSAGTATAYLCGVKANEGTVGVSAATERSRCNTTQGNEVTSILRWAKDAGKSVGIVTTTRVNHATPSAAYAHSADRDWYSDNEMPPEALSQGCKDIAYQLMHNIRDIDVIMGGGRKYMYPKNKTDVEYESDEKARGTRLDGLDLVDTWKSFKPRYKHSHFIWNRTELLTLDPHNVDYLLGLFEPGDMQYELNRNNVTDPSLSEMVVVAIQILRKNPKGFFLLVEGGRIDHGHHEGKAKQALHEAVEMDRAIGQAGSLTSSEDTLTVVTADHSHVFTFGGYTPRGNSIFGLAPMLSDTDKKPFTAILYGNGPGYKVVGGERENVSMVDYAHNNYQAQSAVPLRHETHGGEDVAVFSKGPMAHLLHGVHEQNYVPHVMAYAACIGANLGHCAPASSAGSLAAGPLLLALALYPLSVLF

[13] = biological target: T3, G-protein coupled receptor 55; assay: inhibition of LPI-stimulated GPR55 beta-arrestin translocation – imaging, U2OS, beta-arrestin-GFP, LPI agonist, primary screen (AID 2013); assay type: functional;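 further: antagonist potency measured as reduced agonist-driven arrestin aggregation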
[14] = viability of uninfected HEp-2 cells – cell-based, HTS, cytotoxicity control for RSV inhibitor project, dose response (AID 2410); assay type: functional; conditions: human respiratory syncytial virus
[15] = viability of HCT116 lacking mutant beta-catenin – cell-based, human colon tumor, dose response (AID 1045); assay type: functional;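 further: HCT116 colon tumor cells with beta catenin knocked out; cells exposed to compound for 60 hours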
[16] = biological target: DNA damage-inducible transcript 3 protein (Mus musculus, UniProt P35639); assay type: functional, Cricetulus griseus
[17] = biological target: Induced myeloid leukemia cell differentiation protein Mcl-1 (Homo sapiens, UniProt Q07820); assay type: functional
[18] = viability of PTEN-deleted HCT116 cells – cell-based, HCT116 PTEN knockout, dose response (AID 1047); assay type: functional;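 further: HCT116 colon tumor cells with PTEN knocked out; cells exposed to compound for 60 hours before readout; potency for loss of cell viability measured by luminescence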
[19] = biological target: T7, Small ubiquitin-related modifier 1 (Homo sapiens, UniProt P63165); assay: SUMO1 protein-protein binding blockers, potency – biochemical, FRET, dose response (AID 624383); assay type: functional; conditions: read-out: IC50_Mean
[20] = biological target: T7, Small ubiquitin-related modifier 1; assay: SUMO1 protein interaction blockers, potency – biochemical, fluorescence polarization, uHTS hits, dose response (AID 624382); assay type: functional; conditions: read-out: IC50_Mean
[21] = cells; assay type: functional
[22] = Vero E6 cell cytotoxicity, dose response, cytotoxicity control for non-replicating M. tuberculosis project, secondary assay (AID 492998); assay type: functional, VeroE6; conditions: Vero C1008
[23] = THP-1 cell cytotoxicity, dose response, cytotoxicity control for non-replicating M. tuberculosis project (AID 489025); assay type: functional
[24] = biological target: Troponin, cardiac muscle (Homo sapiens, UniProt P19429+P45379+P63316); assay: Fluorescence-based biochemical high throughput dose response assay for activators of the calcium sensitivity of cardiac Regulated Thin Filaments (RTF). [Related pubchem assays (depositor defined):AID493008, AID493018, AID504382, AID504383]; assay type: protein-complex assay
[25] = biological target: Melanin-concentrating hormone receptor 1 (Homo sapiens, UniProt Q99705); assay: Late-stage fluorescence-based counterscreen for antagonists of the G-protein coupled receptor 7 (GPR7): cell-based dose response assay to identify antagonists of the melanin-concentrating hormone receptor 1 (MCHR1). [Related pubchem assays (depositor defined):AID1861, AID1880, AID1952, AID2148, AID2251, AID2257, AID485339]; assay type: functional;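 further: stimulated with 30 nM MCH peptide agonist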
[26] = biological target: Neuropeptides B/W receptor type 1 (Homo sapiens, UniProt P48145); assay: human NPBW1 receptor blockade, IC50 – cell-based, fluorescence, dose response, late-stage follow-up (AID 463251); assay type: functional
[27] = biological target: Kappa-type opioid receptor (Homo sapiens, UniProt P41145); assay: SAR analysis of small molecule agonists of the kappa opioid receptor via a luminescent beta-arrestin assay - Set 2. [Related pubchem assays (depositor defined):AID1777, AID1785, AID1786, AID1966, AID2133, AID2136, AID2284, AID449737]; assay type: functional
[28] = biological target: Cytochrome P450 2C19 (Homo sapiens, UniProt P33261); assay: Cytochrome panel assay with activity outcomes. Panel member name: p450-cyp2c19 Compounds with AC50 equal or less than 10 uM are considered active; assay type: functional; conditions: read-out: AC50
[29] = biological target: Type-1 angiotensin II receptor (Homo sapiens, UniProt P30556); assay: agonist activity at AGTR1 – cell-based, uHTS hits, selectivity assay for APJ receptor agonist project, dose response (AID 488865); assay type: functional;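 further: beta-arrestin recruitment to AT1 measured by enzyme fragment complementation luminescence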
[30] = biological target: T8, Cytochrome P450 3A4 (Homo sapiens, UniProt P08684)
[31] = biological target: T8, Cytochrome P450 3A4; conditions: Potency
[32] = biological target: E3 ubiquitin-protein ligase Mdm2/Protein Mdm4 (Homo sapiens, UniProt O15151+Q00987); assay: disruption of Mdm2/MdmX protein binding – luminescence detection, dose response (AID 504593); assay type: functional

T7 sequence (P63165 whole entry): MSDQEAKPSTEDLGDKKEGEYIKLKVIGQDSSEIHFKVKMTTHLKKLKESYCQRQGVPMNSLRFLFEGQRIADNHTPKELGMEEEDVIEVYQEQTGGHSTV
T2 sequence (Q9HC97 whole entry): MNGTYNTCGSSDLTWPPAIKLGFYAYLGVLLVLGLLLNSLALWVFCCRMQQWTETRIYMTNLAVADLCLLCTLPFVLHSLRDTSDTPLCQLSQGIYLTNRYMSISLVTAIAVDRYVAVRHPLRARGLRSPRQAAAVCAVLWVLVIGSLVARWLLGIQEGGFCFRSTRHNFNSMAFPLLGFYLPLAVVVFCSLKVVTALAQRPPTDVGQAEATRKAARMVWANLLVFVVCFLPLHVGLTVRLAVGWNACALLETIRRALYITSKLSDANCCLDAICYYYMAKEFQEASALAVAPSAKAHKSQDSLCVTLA
T8 sequence (P08684 whole entry): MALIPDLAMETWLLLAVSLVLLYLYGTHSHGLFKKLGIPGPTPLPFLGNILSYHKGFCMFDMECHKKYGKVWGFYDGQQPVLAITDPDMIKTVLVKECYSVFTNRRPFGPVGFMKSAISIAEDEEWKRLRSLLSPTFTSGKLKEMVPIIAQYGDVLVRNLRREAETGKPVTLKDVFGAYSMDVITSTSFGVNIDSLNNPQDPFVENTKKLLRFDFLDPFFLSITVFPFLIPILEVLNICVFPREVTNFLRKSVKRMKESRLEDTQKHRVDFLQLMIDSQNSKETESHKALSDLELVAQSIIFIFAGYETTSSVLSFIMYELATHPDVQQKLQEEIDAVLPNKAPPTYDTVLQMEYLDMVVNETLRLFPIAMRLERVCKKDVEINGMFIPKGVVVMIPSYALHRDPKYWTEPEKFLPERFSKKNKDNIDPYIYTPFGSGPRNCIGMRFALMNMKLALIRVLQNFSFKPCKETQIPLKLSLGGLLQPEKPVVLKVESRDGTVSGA
T3 sequence (Q9Y2T6 whole entry): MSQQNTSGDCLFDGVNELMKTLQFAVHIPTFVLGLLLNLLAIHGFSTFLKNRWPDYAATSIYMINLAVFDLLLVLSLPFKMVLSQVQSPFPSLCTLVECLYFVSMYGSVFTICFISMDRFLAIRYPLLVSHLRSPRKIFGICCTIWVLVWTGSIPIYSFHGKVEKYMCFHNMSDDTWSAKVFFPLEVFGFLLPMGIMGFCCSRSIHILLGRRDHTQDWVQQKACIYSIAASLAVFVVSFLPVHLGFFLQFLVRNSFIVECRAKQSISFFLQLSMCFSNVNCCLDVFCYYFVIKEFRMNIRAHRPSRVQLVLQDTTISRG
Sequence of Tyrosine-protein phosphatase non-receptor type 12 (Q05209 whole entry): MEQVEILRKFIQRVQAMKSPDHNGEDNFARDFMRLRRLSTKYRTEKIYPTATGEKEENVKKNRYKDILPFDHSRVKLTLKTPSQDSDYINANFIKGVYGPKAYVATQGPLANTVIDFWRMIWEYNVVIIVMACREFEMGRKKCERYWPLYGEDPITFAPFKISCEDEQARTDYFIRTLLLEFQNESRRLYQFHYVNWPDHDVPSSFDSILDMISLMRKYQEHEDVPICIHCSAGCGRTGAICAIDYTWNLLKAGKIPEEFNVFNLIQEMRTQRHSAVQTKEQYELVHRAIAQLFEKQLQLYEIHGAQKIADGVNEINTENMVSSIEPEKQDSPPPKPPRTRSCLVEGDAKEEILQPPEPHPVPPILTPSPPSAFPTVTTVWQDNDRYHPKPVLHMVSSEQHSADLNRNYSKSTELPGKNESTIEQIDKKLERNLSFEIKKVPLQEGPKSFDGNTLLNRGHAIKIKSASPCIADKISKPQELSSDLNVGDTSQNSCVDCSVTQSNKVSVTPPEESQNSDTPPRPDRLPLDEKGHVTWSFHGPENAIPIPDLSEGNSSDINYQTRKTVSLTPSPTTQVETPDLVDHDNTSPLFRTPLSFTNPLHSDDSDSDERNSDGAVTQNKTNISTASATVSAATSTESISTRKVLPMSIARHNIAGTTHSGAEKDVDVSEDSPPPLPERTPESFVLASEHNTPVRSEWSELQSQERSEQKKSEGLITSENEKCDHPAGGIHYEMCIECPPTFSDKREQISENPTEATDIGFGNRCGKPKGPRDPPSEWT
Sequence of Cytochrome P450 2C19 (P33261 whole entry, the tested form may be a part): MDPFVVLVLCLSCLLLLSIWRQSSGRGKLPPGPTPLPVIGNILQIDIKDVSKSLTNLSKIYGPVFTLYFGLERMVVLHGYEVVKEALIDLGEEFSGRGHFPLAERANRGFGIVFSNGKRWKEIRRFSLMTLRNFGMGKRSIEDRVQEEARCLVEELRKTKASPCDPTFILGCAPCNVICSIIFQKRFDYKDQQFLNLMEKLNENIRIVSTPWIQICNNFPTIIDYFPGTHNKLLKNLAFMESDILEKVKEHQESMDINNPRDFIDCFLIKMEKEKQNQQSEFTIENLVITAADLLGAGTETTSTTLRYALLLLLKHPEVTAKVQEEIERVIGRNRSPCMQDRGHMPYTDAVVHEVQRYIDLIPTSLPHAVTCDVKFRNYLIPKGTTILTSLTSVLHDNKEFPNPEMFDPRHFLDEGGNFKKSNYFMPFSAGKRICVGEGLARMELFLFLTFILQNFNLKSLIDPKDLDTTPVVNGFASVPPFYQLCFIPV
Sequence of Glyceraldehyde-3-phosphate dehydrogenase (P04406 whole entry): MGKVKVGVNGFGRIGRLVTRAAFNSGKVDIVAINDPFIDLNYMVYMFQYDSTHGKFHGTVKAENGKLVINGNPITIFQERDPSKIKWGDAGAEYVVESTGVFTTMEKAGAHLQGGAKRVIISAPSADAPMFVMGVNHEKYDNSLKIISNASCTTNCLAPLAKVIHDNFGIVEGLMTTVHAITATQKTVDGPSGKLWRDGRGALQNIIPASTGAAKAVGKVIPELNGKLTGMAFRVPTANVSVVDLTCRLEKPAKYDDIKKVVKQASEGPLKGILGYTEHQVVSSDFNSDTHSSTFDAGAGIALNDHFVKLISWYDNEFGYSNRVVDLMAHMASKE
Sequence of Induced myeloid leukemia cell differentiation protein Mcl-1 (Q07820 whole entry): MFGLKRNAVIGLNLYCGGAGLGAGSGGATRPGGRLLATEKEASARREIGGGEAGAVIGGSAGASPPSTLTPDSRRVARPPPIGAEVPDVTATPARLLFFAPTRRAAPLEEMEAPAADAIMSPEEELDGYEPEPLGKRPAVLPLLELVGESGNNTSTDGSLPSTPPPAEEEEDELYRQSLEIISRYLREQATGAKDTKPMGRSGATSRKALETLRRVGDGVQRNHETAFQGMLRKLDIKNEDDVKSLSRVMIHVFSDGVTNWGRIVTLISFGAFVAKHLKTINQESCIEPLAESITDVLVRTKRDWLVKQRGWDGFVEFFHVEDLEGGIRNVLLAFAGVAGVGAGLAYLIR
Sequence of Melanin-concentrating hormone receptor 1 (Q99705 whole entry): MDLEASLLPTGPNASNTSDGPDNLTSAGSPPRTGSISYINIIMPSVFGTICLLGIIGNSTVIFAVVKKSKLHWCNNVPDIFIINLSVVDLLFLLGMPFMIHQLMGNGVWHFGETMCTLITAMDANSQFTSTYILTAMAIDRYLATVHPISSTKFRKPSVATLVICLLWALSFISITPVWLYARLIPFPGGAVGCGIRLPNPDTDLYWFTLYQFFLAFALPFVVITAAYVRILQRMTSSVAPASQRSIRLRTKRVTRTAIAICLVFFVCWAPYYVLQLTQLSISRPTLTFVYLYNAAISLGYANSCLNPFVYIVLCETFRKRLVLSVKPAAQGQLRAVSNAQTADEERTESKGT
Sequence of DNA damage-inducible transcript 3 protein (P35639 whole entry): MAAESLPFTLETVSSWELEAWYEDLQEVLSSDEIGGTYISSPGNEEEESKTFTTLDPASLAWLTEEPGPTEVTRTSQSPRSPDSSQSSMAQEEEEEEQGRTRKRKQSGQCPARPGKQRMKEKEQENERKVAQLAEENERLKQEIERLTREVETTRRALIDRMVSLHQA
Sequence of Neuropeptides B/W receptor type 1 (P48145 whole entry): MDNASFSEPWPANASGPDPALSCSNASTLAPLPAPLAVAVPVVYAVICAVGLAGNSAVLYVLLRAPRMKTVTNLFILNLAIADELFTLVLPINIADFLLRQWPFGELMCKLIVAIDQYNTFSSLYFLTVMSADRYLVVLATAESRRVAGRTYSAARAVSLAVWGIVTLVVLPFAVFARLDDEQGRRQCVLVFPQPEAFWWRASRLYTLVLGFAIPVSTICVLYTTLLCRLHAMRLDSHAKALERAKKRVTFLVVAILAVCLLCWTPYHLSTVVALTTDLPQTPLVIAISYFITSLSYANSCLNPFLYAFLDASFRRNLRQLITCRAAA
Sequence of Type-1 angiotensin II receptor (P30556 whole entry, the tested form may be a part): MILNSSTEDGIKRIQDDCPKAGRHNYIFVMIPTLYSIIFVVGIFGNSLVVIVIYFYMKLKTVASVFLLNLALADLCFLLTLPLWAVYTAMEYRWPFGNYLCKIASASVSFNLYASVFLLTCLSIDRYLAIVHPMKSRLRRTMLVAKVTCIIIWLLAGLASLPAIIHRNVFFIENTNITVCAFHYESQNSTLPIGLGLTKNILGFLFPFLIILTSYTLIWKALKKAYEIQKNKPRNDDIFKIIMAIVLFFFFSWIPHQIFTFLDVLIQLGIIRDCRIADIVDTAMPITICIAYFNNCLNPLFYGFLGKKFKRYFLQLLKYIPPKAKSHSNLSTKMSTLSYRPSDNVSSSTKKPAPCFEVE
Sequence of Kappa-type opioid receptor (P41145 whole entry): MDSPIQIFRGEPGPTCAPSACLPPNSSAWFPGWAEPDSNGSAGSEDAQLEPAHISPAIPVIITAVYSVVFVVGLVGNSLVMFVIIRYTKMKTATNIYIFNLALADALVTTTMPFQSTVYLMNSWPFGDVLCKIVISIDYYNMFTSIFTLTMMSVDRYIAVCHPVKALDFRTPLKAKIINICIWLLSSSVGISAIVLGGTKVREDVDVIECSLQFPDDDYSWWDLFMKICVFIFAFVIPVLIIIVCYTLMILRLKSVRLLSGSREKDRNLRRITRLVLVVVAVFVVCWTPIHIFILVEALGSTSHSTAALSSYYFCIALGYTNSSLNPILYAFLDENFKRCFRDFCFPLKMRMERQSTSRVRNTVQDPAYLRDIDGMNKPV

COc1cccc(/C=C2\SC(=S)N(CCCC(=O)Nc3ccc(C(=O)O)cc3)C2=O)c1
IC50 [1]: 32.3 µM (active) | IC50 [2]: > 100 µM (inactive) | IC50 [3]: 0.691 µM (active) | IC50 [4]: > 32 µM (inactive) | IC50 [5]: < 0.5 µM (active) | IC50 [6]: 8.56 µM (active) | IC50 [7]: > 100 µM (inactive)

Cc1ccc(NC(=O)c2cc(N3C(=O)CCC3=O)ccc2N2CCOCC2)cc1
EC50 [8]: 16.4 µM (active)

Cc1cc(OCC(=O)NC2CCCCC2)ccc1Cl
EC50 [9]: 1.88 µM (active)

COc1ccccc1-c1nc(SCc2ccccc2F)n[nH]1
IC50 [10]: > 100 µM (inactive) | IC50 [11]: > 100 µM (not active) | IC50 [12]: 3.41 µM (active)

COc1ccc(-c2sc(Nc3ccccc3)n[n+]2-c2ccc(F)cc2)c(C)c1C
IC50 [13]: 2.11 µM (active) | CC50 [14]: 28.5 µM (active)

Fc1cc(F)c2nc(Nc3nc4cc5c(cc4s3)OCO5)sc2c1
EC50 [15]: 17.3 µM (active) | Absolute IC50 (CHOP) [16]: 10 µM | IC50 [17]: 1.12 µM (active) | EC50 [18]: 18.6 µM (active) | IC50 [19]: 1.53 µM (active) | IC50 [20]: > 66.6 µM (inactive)

O=c1c2ccccc2nc2cc(O)c(-c3ccccc3)nn12
IC50 [21]: 4.34 µM (active) | CC50 [22]: 15.4 µM (active) | CC50 [23]: > 40 µM (active)

O=C(COC(=O)c1ccc(O)cc1)Nc1ccc2c(c1)OCCO2
EC50 [24]: > 71.5 µM (inactive)

CC(C)c1ccc(-n2ncc(Cl)c(Oc3ccc(N)cc3)c2=O)cc1
IC50 [25]: 7 µM (active) | IC50 [26]: 2.5 µM (active)

O=C(CN(Cc1cccs1)C(=O)c1ccccn1)NC1CCCCCC1
EC50 [27]: > 20 µM (inactive)

Clc1ccccc1CSc1nnc(-c2ccncc2)o1
AC50 [28]: 0.126 µM (inconclusive) | EC50 [29]: > 100 µM (inactive) | AC50 [30]: 20 µM (inconclusive)

CC(C)c1cccc(=O)c(O)c1 [HINOKITIOL]
AC50 [31]: 0.631 µM (inconclusive) | IC50 [32]: 3.58 µM (active)
